Tests used:
NAMPT = NAMPT (Homo sapiens, UniProt P43490); experiment: Time-Resolved Fluorescence Resonance Energy Transfer (TR-FRET) Binding Assay of NAMPT with PRPP; details: 200 μM PRPP and 2.5 mM ATP; 2 nM NAMPT, 2 nM probe, equilibrated 16 hours
Procedure: Time-Resolved Fluorescence Resonance Energy Transfer (TR-FRET) Binding Assay of NAMPT with PRPP
Compound handling and data processing were identical to the assay in the absence of substrates (above). Final concentrations were 1× assay buffer, 2% DMSO, 2 nM NAMPT, 2 nM probe, 1 nM Tb-anti-His antibody (Invitrogen #PV5895), 200 μM PRPP and 2.5 mM ATP. Reactions were equilibrated for 16 hours prior to measurement to allow for potential enzymatic modification of test compounds.

[1] = target: NAMPT (human, recombinant, C-terminally His-tagged) (Homo sapiens, UniProt P43490); experiment: Time-Resolved Fluorescence Resonance Energy Transfer (TR-FRET) Binding Assay of NAMPT; details: absence of substrates; 6.8 nM NAMPT, 200 nM probe, equilibrated 3 hours
Procedure: Determination of the utility of compounds having Formula (I) as binders to and inhibitors of NAMPT was performed using Time-Resolved Fluorescence Resonance Energy Transfer (TR-FRET) binding assays.
Time-Resolved Fluorescence Resonance Energy Transfer (TR-FRET) Binding Assay of NAMPT
Test compounds were serially diluted (typically 11 half log dilutions) in neat DMSO to 50× final concentrations prior to dilution with assay buffer (50 mM HEPES (NaOH), pH 7.5, 100 mM NaCl, 10 mM MgCl2, 1 mM DTT, 1% Glycerol) to 3× and 6% DMSO. Six μL were transferred to 384-well low-volume plates (Owens Corning #3673). To this, 12 μL of a 1.5× solution containing enzyme, probe and antibody were added. Final concentrations in the 18 μL reactions were 1× assay buffer, 2% DMSO, 6.8 nM NAMPT (human, recombinant, C-terminally His-tagged), 200 nM probe (a potent nicotinamide-competitive inhibitor conjugated to Oregon Green 488) and 1 nM Tb-anti-His antibody (Invitrogen #PV5895). Reactions were equilibrated at room temperature for 3 hours prior to reading on an Envision multi-label plate reader (Perkin Elmer; Ex=337 nm, Em=520 and 495 nm). Time-resolved FRET ratios (Em520/Em495) were normalized to controls, plotted as a function of compound concentration and fit with the four-parameter logistic equation to determine IC50s.

Chain of NAMPT (P43490 whole entry): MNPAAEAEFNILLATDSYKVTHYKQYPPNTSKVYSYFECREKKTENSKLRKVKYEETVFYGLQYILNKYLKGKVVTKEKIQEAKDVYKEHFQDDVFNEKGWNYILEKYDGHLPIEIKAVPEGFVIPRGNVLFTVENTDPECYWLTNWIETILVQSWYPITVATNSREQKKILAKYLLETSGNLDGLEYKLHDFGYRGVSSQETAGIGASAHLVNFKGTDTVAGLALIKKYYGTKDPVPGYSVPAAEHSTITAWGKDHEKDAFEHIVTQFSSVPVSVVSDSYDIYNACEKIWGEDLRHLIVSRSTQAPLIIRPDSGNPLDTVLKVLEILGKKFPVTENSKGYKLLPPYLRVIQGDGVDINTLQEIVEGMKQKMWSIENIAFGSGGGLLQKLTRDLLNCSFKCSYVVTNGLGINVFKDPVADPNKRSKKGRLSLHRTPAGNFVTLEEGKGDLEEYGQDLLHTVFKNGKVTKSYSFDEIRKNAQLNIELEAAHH
Chain of NAMPT (human, recombinant, C-terminally His-tagged) (P43490 whole entry): as above

| Structure (SMILES) | IC50 (NAMPT) [nM] | IC50 [1] [nM] |
| --- | --- | --- |
| CC(C)CCN(C(=O)C(C)Oc1ccccc1)c1ncc(C(=O)NCCCn2ccnc2)s1 (stereo not shown) [Example 77, N-[3-(1H-imidazol-1-yl)propyl]-2-[(3-methylbutyl)(2-phenoxypropanoyl)amino]-1,3-thiazole-5-carboxamide] | 0.774 | 95.6 |
| O=C(NCCCn1ccnc1)c1cnc(N(Cc2ccc(Cl)cn2)C(=O)C2CCOC2)s1 (stereo not shown) [Example 206, 2-{[(5-chloropyridin-2-yl)methyl](tetrahydrofuran-3-ylcarbonyl)amino}-N-[3-(1H-imidazol-1-yl)propyl]-1,3-thiazole-5-carboxamide] | 0.633 | 5630 |
| COCCCNC(=O)N(Cc1ccc(C#N)cc1)c1ncc(C(=O)NCCCn2ccnc2)s1 [Example 166, 2-{(4-cyanobenzyl)[(3-methoxypropyl)carbamoyl]amino}-N-[3-(1H-imidazol-1-yl)propyl]-1,3-thiazole-5-carboxamide] | 630 | > 10000 |
| CC(C)CCN(C(=O)[C@@H](C)Oc1ccccc1)c1ncc(C(=O)NCCCn2ccnc2)s1 [Example 133, N-[3-(1H-imidazol-1-yl)propyl]-2-{(3-methylbutyl)[(2R)-2-phenoxypropanoyl]amino}-1,3-thiazole-5-carboxamide] | 0.527 | 58.9 |
| O=C(NCCCn1ccnc1)c1cnc(N(Cc2ccc(F)cc2)C(=O)CN2CCOCC2)s1 [Example 40, 2-[(4-fluorobenzyl)(morpholin-4-ylacetyl)amino]-N-[3-(1H-imidazol-1-yl)propyl]-1,3-thiazole-5-carboxamide] | 1.99 | 2200 |
| COCC(COC)NC(=O)N(Cc1ccc(F)cc1)c1ncc(C(=O)NCCCn2ccnc2)s1 [Example 89, 2-{[(1,3-dimethoxypropan-2-yl)carbamoyl](4-fluorobenzyl)amino}-N-[3-(1H-imidazol-1-yl)propyl]-1,3-thiazole-5-carboxamide] | 1.98 | 5830 |
| CN(Cc1ccc(-c2cccnc2)cc1)c1ncc(C(=O)NCCCn2ccnc2)s1 [Example 2, N-[3-(1H-imidazol-1-yl)propyl]-2-{methyl[4-(pyridin-3-yl)benzyl]amino}-1,3-thiazole-5-carboxamide] | 4.29 | 7560 |
| N#Cc1ccc(CN(C(=O)NCCOCCO)c2ncc(C(=O)NCCCn3ccnc3)s2)cc1 [Example 125, 2-[(4-cyanobenzyl){[2-(2-hydroxyethoxy)ethyl]carbamoyl}amino]-N-[3-(1H-imidazol-1-yl)propyl]-1,3-thiazole-5-carboxamide] | 0.712 | > 10000 |
| N#Cc1ccc(C(=O)N(Cc2ccc(F)cc2)c2ncc(C(=O)NCCCn3ccnc3)s2)cc1 [Example 11, 2-[(4-cyanobenzoyl)(4-fluorobenzyl)amino]-N-[3-(1H-imidazol-1-yl)propyl]-1,3-thiazole-5-carboxamide] | 0.47 | 476 |
| COCC(=O)N(Cc1ccc(F)cc1)c1ncc(C(=O)NCCCn2ccnc2)s1 [Example 24, 2-[(4-fluorobenzyl)(methoxyacetyl)amino]-N-[3-(1H-imidazol-1-yl)propyl]-1,3-thiazole-5-carboxamide] | 0.682 | 4140 |
| O=C(NCCCn1ccnc1)c1cnc(N(CCCN2CCOCC2)Cc2ccc(F)cc2)s1 [Example 7, 2-{(4-fluorobenzyl)[3-(morpholin-4-yl)propyl]amino}-N-[3-(1H-imidazol-1-yl)propyl]-1,3-thiazole-5-carboxamide] | 486 | 1610 |
| O=C(NCCCn1ccnc1)c1cnc(N(Cc2ccc(F)cc2)C(=O)N2CCC3(C2)OCCO3)s1 [Example 67, N-(4-fluorobenzyl)-N-(5-{[3-(1H-imidazol-1-yl)propyl]carbamoyl}-1,3-thiazol-2-yl)-1,4-dioxa-7-azaspiro[4.4]nonane-7-carboxamide] | 3.53 | > 10000 |
| COCCC(=O)N(Cc1ccccn1)c1ncc(C(=O)NCCCn2ccnc2)s1 [Example 121, N-[3-(1H-imidazol-1-yl)propyl]-2-[(3-methoxypropanoyl)(pyridin-2-ylmethyl)amino]-1,3-thiazole-5-carboxamide] | 9.25 | > 10000 |
| O=C(NCCCn1ccnc1)c1cnc(N(Cc2ccc(F)cc2)C(=O)NC2CCOC2)s1 (stereo not shown) [Example 91, 2-[(4-fluorobenzyl)(tetrahydrofuran-3-ylcarbamoyl)amino]-N-[3-(1H-imidazol-1-yl)propyl]-1,3-thiazole-5-carboxamide] | 0.543 | 8690 |
| COCCC(=O)N(CC(=O)N1CCCCC1)c1ncc(C(=O)NCCCn2ccnc2)s1 [Example 196, N-[3-(1H-imidazol-1-yl)propyl]-2-{(3-methoxypropanoyl)[2-oxo-2-(piperidin-1-yl)ethyl]amino}-1,3-thiazole-5-carboxamide] | 0.538 | 7010 |
| O=C(NCCCn1ccnc1)c1cnc(N(CC(=O)N2CCOCC2)Cc2ccc(F)cc2)s1 [Example 22, 2-{(4-fluorobenzyl)[2-(morpholin-4-yl)-2-oxoethyl]amino}-N-[3-(1H-imidazol-1-yl)propyl]-1,3-thiazole-5-carboxamide] | 60.2 | 384 |

The next compounds have a lower IC50 (NAMPT) than those just listed; values first:

| IC50 (NAMPT) [nM] | IC50 [1] [nM] | Structure (SMILES) |
| --- | --- | --- |
| 0.195 | 356 | COCCN(C(=O)Cc1ccc(N)cc1)c1ncc(C(=O)NCCCn2ccnc2)s1 [Example 188, 2-{[(4-aminophenyl)acetyl](2-methoxyethyl)amino}-N-[3-(1H-imidazol-1-yl)propyl]-1,3-thiazole-5-carboxamide] |
| 0.286 | 1430 | CC(=O)O[C@@H](C)C(=O)N(CCC(C)C)c1ncc(C(=O)NCCCn2ccnc2)s1 [Example 153, (2S)-1-[(5-{[3-(1H-imidazol-1-yl)propyl]carbamoyl}-1,3-thiazol-2-yl)(3-methylbutyl)amino]-1-oxopropan-2-yl acetate] |
| 0.241 | 303 | O=C(NCCCn1ccnc1)c1cnc(N(Cc2ccc(F)cc2)C(=O)c2cccc(Cl)c2)s1 [Example 12, 2-[(3-chlorobenzoyl)(4-fluorobenzyl)amino]-N-[3-(1H-imidazol-1-yl)propyl]-1,3-thiazole-5-carboxamide] |
| 0.232 | 768 | CC(C)CCN(C(=O)C1CC1)c1ncc(C(=O)NCCCn2ccnc2)s1 [Example 152, 2-[(cyclopropylcarbonyl)(3-methylbutyl)amino]-N-[3-(1H-imidazol-1-yl)propyl]-1,3-thiazole-5-carboxamide] |
| 0.192 | 2740 | CC(C)OCCNC(=O)N(CCc1ccc(Cl)cn1)c1ncc(C(=O)NCCCn2ccnc2)s1 [Example 210, 2-([2-(5-chloropyridin-2-yl)ethyl]{[2-(propan-2-yloxy)ethyl]carbamoyl}amino)-N-[3-(1H-imidazol-1-yl)propyl]-1,3-thiazole-5-carboxamide] |
| 0.262 | > 10000 | COCCC(=O)N(CCCN1CCCC1)c1ncc(C(=O)NCCCn2ccnc2)s1 [Example 192, N-[3-(1H-imidazol-1-yl)propyl]-2-{(3-methoxypropanoyl)[3-(pyrrolidin-1-yl)propyl]amino}-1,3-thiazole-5-carboxamide] |
| 0.331 | 3860 | COCCC(=O)N(CCc1ccc(Cl)cn1)c1ncc(C(=O)NCCCn2ccnc2)s1 [Example 207, 2-{[2-(5-chloropyridin-2-yl)ethyl](3-methoxypropanoyl)amino}-N-[3-(1H-imidazol-1-yl)propyl]-1,3-thiazole-5-carboxamide] |
